pIC50: −log10 of the molar value. Some results are limits rather than exact numbers.

Results on 31 compounds are retold here after patent US7566718B2, “Amine-linked pyridyl and phenyl substituted piperazine-piperidines with CXCR3 antagonist activity” (Schering Corporation, priority 2005, dated 2009).

For this assay, the target named is T1, human CXCR3 (N-delta 4) (Homo sapiens, UniProt P49682).
T1 construct: CD8 leader (N); Flag tag; expressed in transfected cells; membrane preparation
T1 sequence (P49682 5-368 limits assumed): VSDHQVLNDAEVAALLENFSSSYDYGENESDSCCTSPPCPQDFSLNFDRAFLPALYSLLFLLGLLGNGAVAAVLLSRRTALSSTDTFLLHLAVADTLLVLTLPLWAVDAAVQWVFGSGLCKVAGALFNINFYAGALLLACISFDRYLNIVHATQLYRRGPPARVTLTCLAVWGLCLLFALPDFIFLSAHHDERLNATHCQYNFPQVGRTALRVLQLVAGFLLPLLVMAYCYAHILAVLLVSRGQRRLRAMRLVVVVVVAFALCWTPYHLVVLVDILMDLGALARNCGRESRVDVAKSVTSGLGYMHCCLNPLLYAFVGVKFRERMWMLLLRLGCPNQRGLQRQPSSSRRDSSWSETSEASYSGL
The experiment in a line: Human CXCR3 (N-delta 4) scintillation proximity assay (SPA), [125I] IP-10 binding to Ba/F3-hCXCR3 membranes. The following applies: IC50 rating; [125I] IP-10 displacement, human CXCR3; read-out: IC50. An outline of the steps:
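Membranes from Ba/F3 cells expressing Flag-tagged hCXCR3 (N-delta 4), 2 μg/point, precoupled to WGA SPA beads. Binding of 25 pM [125I] IP-10 measured with titrated compounds, 3 hr at room temperature, in HEPES buffer with CaCl2, MgCl2, NaCl and 1.0% BSA; bound tracer read by scintillation counting.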
In general terms: SPA uses beads or plates that emit light when radiolabelled molecules are held near them.
As for `CC[C@H]1CN(c2ncc(NC3=NS(=O)(=O)N=C3NC3CC3)cc2Cl)CCN1C1CCN(Cc2ccc(Cl)cc2-c2nnc[nH]2)CC1` [Compound 250], the pIC50 is > 7.60. The same measure for `CC[C@H]1CN(c2ncc(NC3=NS(=O)(=O)N=C3NC3CC3)cc2Cl)CCN1C1CCN(Cc2ccc(F)c(F)c2)CC1` [Compound 251]: > 7.60. The same measure for `CC[C@H]1CN(c2ncc(NC3=NS(=O)(=O)N=C3NCC(F)(F)F)cc2Cl)CCN1C1CCN(Cc2ccc(Cl)cc2F)CC1` [Compound 252]: > 7.60; for `CC[C@H]1CN(c2ncc(NC3=NS(=O)(=O)N=C3NC[C@H](C)O)cc2Cl)CCN1C1CCN(Cc2ccc(Cl)cc2F)CC1` [Compound 253]: > 7.60; for `CC[C@H]1CN(c2ncc(NC3=NS(=O)(=O)N=C3N3CCC3)cc2Cl)CCN1C1CCN(Cc2ccc(Cl)cc2F)CC1` [Compound 254]: > 7.60. The figure for `CC[C@H]1CN(c2ncc(NC3=NS(=O)(=O)N=C3NC(C)(C)C)cc2Cl)CCN1C1CCN(Cc2ccc(Cl)cc2F)CC1` [Compound 255] is 7.00 to 7.60; for `CC[C@H]1CN(c2ncc(NC3=NS(=O)(=O)N=C3N(C)C)cc2Cl)CCN1C1CCN(Cc2ccc(Cl)cc2C(=N)NO)CC1` [Compound 256] it is 7.00 to 7.60; for `CC[C@H]1CN(c2ncc(NC3=NS(=O)(=O)N=C3NCCO)cc2Cl)CCN1C1CCN(Cc2ccc(F)c(F)c2)CC1` [Compound 257] it is 7.00 to 7.60. In the case of `CC[C@H]1CN(c2ncc(NC3=NS(=O)(=O)N=C3NC[C@@H](C)O)cc2Cl)CCN1C1CCN(Cc2ccc(Cl)cc2F)CC1` [Compound 258], the pIC50 was 7.00 to 7.60. The same measure for `CC[C@H]1CN(c2ncc(NC3=NS(=O)(=O)N=C3N)cc2Cl)CCN1C1CCN(Cc2ccc(Cl)cc2F)CC1` [Compound 259]: 7.00 to 7.60; for `CC[C@H]1CN(c2ncc(NC3=NS(=O)(=O)N=C3NC3CC3)cc2Cl)CCN1C1CCN(Cc2ccc(Cl)cc2C#N)CC1` [Compound 260]: 7.00 to 7.60. The same measure for `CC[C@H]1CN(c2ncc(NC3=NS(=O)(=O)N=C3N3CCOCC3)cc2Cl)CCN1C1CCN(Cc2ccc(OC(F)(F)F)cc2)CC1` [Compound 261]: 7.00 to 7.60; for `CC[C@H]1CN(c2ncc(NC3=NS(=O)(=O)N=C3N)cc2Cl)CCN1C1CCN(Cc2ccc(OC(F)(F)F)cc2)CC1` [Compound 262]: 7.00 to 7.60.

Turning to `CC[C@H]1CN(c2ncc(NC3=NS(=O)(=O)N=C3NC)cc2Cl)CCN1C1CCN(Cc2ccc(Cl)cc2C#N)CC1` [Compound 263], the pIC50 is 7.00 to 7.60. The same measure for `CC[C@H]1CN(c2ncc(NC3=NS(=O)(=O)N=C3NCC(F)(F)F)cc2Cl)CCN1C1CCN(Cc2ccc(F)c(F)c2)CC1` [Compound 264]: < 7.00; for `CC[C@H]1CN(c2ncc(NC3=NS(=O)(=O)N=C3N)cc2Cl)CCN1C1CCN(Cc2ccc(Cl)cc2-c2ncon2)CC1` [Compound 265]: < 7.00. The figure for `CC[C@H]1CN(c2ncc(NC3=NS(=O)(=O)N=C3NC3CC3)cc2Cl)CCN1C1CCN(Cc2ccc(C#N)nc2)CC1` [Compound 266] is < 7.00. The figure for `CC[C@H]1CN(c2ncc(NC3=NS(=O)(=O)N=C3NC(C)(C)C)cc2Cl)CCN1C1CCN(Cc2ccc(Cl)cc2C#N)CC1` [Compound 267] is < 7.00; for `CC[C@H]1CN(c2ncc(NC3=NS(=O)(=O)N=C3N3CCC3)cc2Cl)CCN1C1CCN(Cc2ccc(F)c(F)c2)CC1` [Compound 268] it is < 7.00. Consider `CC[C@H]1CN(c2ncc(NC3=NS(=O)(=O)N=C3N3CCOCC3)cc2Cl)CCN1C1CCN(Cc2ccc(F)c(F)c2)CC1` [Compound 269], for which the pIC50 is < 7.00. The figure for `CC[C@H]1CN(c2ncc(NC3=NS(=O)(=O)N=C3NC3CC3)cc2Cl)CCN1C1CCN(Cc2ccc(Cl)cc2-c2nnc(Br)[nH]2)CC1` [Compound 270] is < 7.00; for `CC[C@H]1CN(c2ncc(NC3=NS(=O)(=O)N=C3N(C)C)cc2Cl)CCN1C1CCN(Cc2ccc(OC(F)(F)F)cc2)CC1` [Compound 271] it is < 7.00; for `CC[C@H]1CN(c2ncc(NC3=NS(=O)(=O)N=C3N(C)C)cc2Cl)CCN1C1CCN(Cc2ccc(F)c(F)c2)CC1` [Compound 272] it is < 7.00. The same measure for `CCCCNC1=NS(=O)(=O)N=C1Nc1cnc(N2CCN(C3CCN(Cc4ccc(Cl)cc4C#N)CC3)[C@@H](CC)C2)c(Cl)c1` [Compound 273]: < 7.00. In the case of `CC[C@H]1CN(c2ncc(NC3=NS(=O)(=O)N=C3NCCNS(C)(=O)=O)cc2Cl)CCN1C1CCN(Cc2ccc(Cl)cc2F)CC1` [Compound 274], the pIC50 is < 7.00. Regarding `CC[C@H]1CN(c2ncc(NC3=NS(=O)(=O)N=C3NC3CC3)cc2Cl)CCN1C1CCN(C(=O)c2ccc(Cl)cc2O)CC1` [Compound 275], the pIC50 is < 7.00. `CC[C@H]1CN(c2ncc(NC3=NS(=O)(=O)N=C3NC(CO)C(N)=O)cc2Cl)CCN1C1CCN(Cc2ccc(Cl)cc2F)CC1` (stereo partly shown) [Compound 276]: the pIC50 was < 7.00.

With `CC[C@H]1CN(c2ncc(NC3=NS(=O)(=O)N=C3Nc3ccccc3O)cc2Cl)CCN1C1CCN(Cc2ccc(Cl)cc2F)CC1` [Compound 277], the pIC50 is < 7.00. With `CC[C@H]1CN(c2ncc(NC3=NS(=O)(=O)N=C3NCC(C)(C)C)cc2Cl)CCN1C1CCN(Cc2ccc(Cl)cc2C#N)CC1` [Compound 278], the negative-log IC50 (pIC50) was < 7.00. The figure for `CC[C@H]1CN(c2ncc(NC3=NS(=O)(=O)N=C3NCCN)cc2Cl)CCN1C1CCN(Cc2ccc(Cl)cc2F)CC1` [Compound 279] is < 7.00.

As to `CC[C@H]1CN(c2ncc(NC3=NS(=O)(=O)N=C3NCC(=O)O)cc2Cl)CCN1C1CCN(Cc2ccc(Cl)cc2F)CC1` [Compound 280], the pIC50 was < 7.00.

The pIC50 is the IC50 on a negative log10 scale, so that one unit is a factor of ten.
